Measurements as given in patent US9809555B2, “Form of mefenpyr-diethyl, a process for its preparation and use of the same” (ROTAM AGROCHEM INTERNATIONAL COMPANY LIMITED, priority 2015, dated 2017).

How the values were obtained:
[1] = Stability test: accelerated storage of formulations (CIPAC MT 46.3), mefenpyr-diethyl content by HPLC before and after aging; assay type: physicochemical; conditions: stored at 54° C. for 1 week
Experimental: The stability of the mefenpyr-diethyl in these compositions was determined by aging samples in heated ovens having the same atmosphere therein, and then comparing the mefenpyr-diethyl content before and after aging to determine relative percentage of hydrolysis (RPH). RPH was calculated by the following equation: […]
Mefenpyr-diethyl content was determined by assaying the compositions with high-pressure liquid chromatography (HPLC) using reverse phase columns and eluants.
Samples prepared in Examples 4, 5 and 6 were stored at 54° C. for 1 week. The procedures are followed according to CIPAC MT 46.3. The concentration of mefenpyr-diethyl was measured at the end of each storage time by HPLC.

[2] = General stability of mefenpyr-diethyl forms (hydrolysis in water or on storage); assay type: physicochemical; conditions: dissolved or dispersed in water, or during storage exposed to moisture, result in words
From the text: It will generally undergo significant hydrolysis when dissolved or dispersed in water. Furthermore, hydrolysis can occur during storage, particularly where the compound is exposed to moisture. As a result, the stability of mefenpyr-diethyl is of great concern with respect to providing the commercially available formulations. Therefore, there is a need to provide a novel form mefenpyr-diethyl with increased stability in formulations.
Accordingly, in an embodiment, the invention provides a novel crystalline form of mefenpyr-diethyl, termed “crystalline modification I”, and a process for its preparation, as well as its use in agrochemical compositions. […] Accordingly, in an embodiment, the invention also provides compositions for controlling undesirable plant growth, such as weeds, comprising the crystalline modification I of mefenpyr-diethyl with sulfonylurea herbicides, as a mixture with auxiliaries and carriers. The use of the crystalline modification I of mefenpyr-diethyl with sulfonylurea herbicides in the control of undesired plant growth and a method for the same are also provided by embodiments of the invention.

[3] = Example 4 oil based suspension concentrate (OD) with iodosulfuron-methyl-sodium, 10 weight % mefenpyr-diethyl
[4] = Example 5 soluble granules (SG) with mesosulfuron-methyl, 7 weight % mefenpyr-diethyl
[5] = Example 6 water dispersible granules (WG) with iodosulfuron-methyl-sodium, 7 weight % mefenpyr-diethyl

SMILES | RPH % (relative percentage of hydrolysis) [1, 3] [%] | RPH % (relative percentage of hydrolysis) [1, 4] [%] | RPH % (relative percentage of hydrolysis) [1, 5] [%] | stability (hydrolysis) ([2]; listed as mefenpyr-diethyl in amorphous state) | stability (hydrolysis) [2]
CCOC(=O)C1=NN(c2ccc(Cl)cc2Cl)C(C)(C(=O)OCC)C1 (racemic) [Amorphous mefenpyr-diethyl, diethyl (RS)-1-(2,4-dichlorophenyl)-5-methyl-2-pyrazoline-3,5-dicarboxylate] | 50 | 40 | 45 | highly unstable | –
CCOC(=O)C1=NN(c2ccc(Cl)cc2Cl)C(C)(C(=O)OCC)C1 (racemic) [Mefenpyr-diethyl, crystalline modification I] [diethyl (RS)-1-(2,4-dichlorophenyl)-5-methyl-2-pyrazoline-3,5-dicarboxylate] | 0 | 0 | 0 | – | increased stability relative to the amorphous form
